1 compound from paper PMC10278977, “Caenorhabditis elegans NMAD-1 functions as a demethylase for actin” (Journal of Molecular Cell Biology, 2023) can be followed below.

Each structure is given as a SMILES string.

Experiment [1] concerns the target T1, CTD-deleted NMAD-1 (ΔCTD, residues 1–259) (Caenorhabditis elegans, UniProt Q8MNT9).
T1 construct: residues 1-259, C-terminal domain deleted
T1 sequence (Q8MNT9 1-259): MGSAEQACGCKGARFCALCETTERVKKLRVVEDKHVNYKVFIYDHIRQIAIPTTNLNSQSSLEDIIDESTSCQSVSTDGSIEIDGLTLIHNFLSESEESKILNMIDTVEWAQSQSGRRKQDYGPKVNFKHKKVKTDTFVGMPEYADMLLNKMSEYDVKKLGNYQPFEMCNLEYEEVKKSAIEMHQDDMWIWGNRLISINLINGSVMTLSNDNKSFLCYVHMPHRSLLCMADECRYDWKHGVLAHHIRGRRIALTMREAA
Nature of the experiment: binding affinity measurement, method not given. From the text: binding affinity measurement, method not told in main text on CTD-deleted NMAD-1 (ΔCTD, residues 1–259) | the CTD-deleted NMAD-1 retained the NOG binding affinity

Experiment [2] has as its target T2, NMAD-1 (WT, full-length) (Caenorhabditis elegans, UniProt Q8MNT9).
T2 construct: recombinant full-length protein
T2 sequence (Q8MNT9 1-291): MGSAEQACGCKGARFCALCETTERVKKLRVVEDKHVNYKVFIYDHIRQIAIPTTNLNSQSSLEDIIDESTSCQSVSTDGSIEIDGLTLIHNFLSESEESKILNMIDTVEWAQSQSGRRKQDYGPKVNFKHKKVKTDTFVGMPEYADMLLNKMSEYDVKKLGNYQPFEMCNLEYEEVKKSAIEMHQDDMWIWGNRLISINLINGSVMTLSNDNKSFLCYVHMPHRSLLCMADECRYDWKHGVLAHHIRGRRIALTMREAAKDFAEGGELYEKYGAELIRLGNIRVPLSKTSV
Nature of the experiment: isothermal titration calorimetry. In kind it is binding. An excerpt: isothermal titration calorimetry on NMAD-1 (WT, full-length) | the cofactor analog N-oxalylglycine (NOG) with dissociation constants (KD) of […]
In general terms: ITC needs no label: the signal is the heat of the interaction.

Experiment [3] deals with T3, NMAD-1_32–291 (NMAD-1 truncation Δ1–31) (Caenorhabditis elegans, UniProt Q8MNT9).
T3 construct: residues 32-291, N-terminal flexible region removed
T3 sequence (Q8MNT9 32-291): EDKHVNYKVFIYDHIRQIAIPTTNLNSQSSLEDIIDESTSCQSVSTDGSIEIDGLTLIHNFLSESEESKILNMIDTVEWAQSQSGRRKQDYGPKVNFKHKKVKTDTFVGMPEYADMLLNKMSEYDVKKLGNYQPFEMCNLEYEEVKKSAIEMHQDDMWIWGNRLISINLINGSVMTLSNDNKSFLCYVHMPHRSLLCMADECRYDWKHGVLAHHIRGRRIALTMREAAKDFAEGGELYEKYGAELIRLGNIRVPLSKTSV
The experiment is described as follows: binding affinity measurement, method not given. An excerpt: binding affinity measurement, method not told in main text on NMAD-1_32–291 (NMAD-1 truncation Δ1–31) | NOG as the full-length NMAD-1 (Supplementary Figure S3C)

`O=C(O)CNC(=O)C(=O)O` [N-oxalylglycine]: the values for the Kd in experiment [1], in experiment [2] and in experiment [3] were 1.68 ± 0.01 µM, 1.07 ± 0.11 µM and 1.25 ± 0.1 µM, respectively.
